Legend:
[1] = system: ALK-mediated tau phosphorylation; conditions: for ALK-mediated tau phosphorylation: HT22 cells, pGFP-tau + pALK.Fc, 24 hours, dependent on treating amount
CDK5 = molecular target: T1, CDK5 (Mus musculus, UniProt P49615); assay: ALK/Tau cell death in HT22 cells with CDK5 shRNA (LIVE/DEAD Viability/Cytotoxicity kit); type: cell-based; conditions: pGFP-tau + pALK.Fc + shRNA, 48 hours after transfection
T1 construct: endogenous in cells; host or cells: HT22 cells cotransfected with pGFP-tau, pALK.Fc and pCDK5 shRNA #1 or #2
T1 sequence (P49615 whole entry): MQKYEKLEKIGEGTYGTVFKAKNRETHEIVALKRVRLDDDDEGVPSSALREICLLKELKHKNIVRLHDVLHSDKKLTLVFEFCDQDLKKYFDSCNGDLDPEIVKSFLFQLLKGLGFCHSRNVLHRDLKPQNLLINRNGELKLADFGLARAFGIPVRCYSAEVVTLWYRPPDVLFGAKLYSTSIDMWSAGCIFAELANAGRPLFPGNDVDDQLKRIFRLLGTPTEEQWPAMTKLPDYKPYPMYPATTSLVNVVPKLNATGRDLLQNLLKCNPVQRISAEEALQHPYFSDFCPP
Method: Moreover, the present inventor observed neurotoxicity of ALK/Tau by using CDK5 shRNA. HT22 cells cotransfected with pGFP-tau and pALK.Fc constructs together with either pCDK5 shRNA #1 or #2. After 48 hours of the transfection, cell death was measured by using LIVE/DEAD Viability/Cytotoxicity kit (Molecular Probes). As the same as above experimental results, it was observed that cell death induced by ALK/Tau was reduced when endogenous CDK5 expression was inhibited using shRNA (FIG. 8D). The used pCDK5 shRNA #1 was characterized by having a polynucleotide having the nucleotide sequence of SEQ ID No. 1 (5′-[…]-3′), and pCDK5 shRNA #2 was characterized by having a polynucleotide having the nucleotide sequence of SEQ ID No. 2 (5′-[…]-3′). […] The results shown in FIGS. 8A to 8D were mean±S.D obtained by triplicate experiments.

HT22/Tau #1 cells = assay: Cell death of HT22/Tau #1 cells transfected with ALK.Fc and treated with ALK inhibitor (fluorescence microscopy, cell morphology); type: cell-based, mouse; conditions: 20 nM, 24 hours; decreased from 42% without inhibitor
Method: Then, cell death was determined through a fluorescence microscopy based on cell morphology. Thereafter, cells were extracted and phosphorylation of tau, ERK, CDK5 and ALK was measured through western blot using respective antibodies. The error bar of the graph indicates mean±S.D. (n=4).

[2] = system: tau aggregation caused by ALK in HT22 cells; conditions: emodin, inhibitor of PHF aggregation; given with literature references; cited from earlier work
[3] = system: tau protein phosphorylation; assay: Western blot of tau phosphorylation (PHF-1, Tau-1 antibodies) in HT22 cells cotransfected with pmALK and pGFP-tau; type: cell-based, mouse; conditions: pmALK + pGFP-tau, emodin treatment
Method: Subsequently, the present inventor examined aggregation and phosphorylation of tau caused by coexpression of mouse tau and mouse ALK as observed in Experimental Example 1-1 through treatment of an inhibitor of ERK activation and PHF aggregation. Specifically, HT22 cells were cotransfected with pmALK and pGFP-tau constructs, and condensation of cells depending whether emodin was treated or not was counted, wherein emodin is an inhibitor of ERK activation and PHF aggregation. Then, the cells were extracted to examine a phosphorylation level of tau protein by using PHF-1 antibody and Tau-1 antibody.

[4] = system: tau aggregation caused by ALK in HT22 cells; assay: Tau aggregation in HT22 cells cotransfected with pmALK and pGFP-tau, counted by fluorescence microscopy; type: cell-based, mouse; conditions: pmALK + pGFP-tau, emodin treatment
Method: To examine whether mouse ALK increases aggregation and phosphorylation of tau, a pGFP-tau-based functional screening method of which availability was validated in the Experiment Example 1 was used. […] The transfection was performed while amounts of cotransfected pcDNA, pGSK3β CA, and pmALK constructs were increased to 100, 200, and 400 ng. After 24 hours of transfection, aggregation of tau was examined as the number of GFP-positive cells appeared to be aggregated by using a fluorescence microscopy. After then, the cells were extracted to examine phosphorylation of tau by analyzing PHF-1 protein expression with western blot. Subsequently, the present inventor examined aggregation and phosphorylation of tau caused by coexpression of mouse tau and mouse ALK as observed in Experimental Example 1-1 through treatment of an inhibitor of ERK activation and PHF aggregation. Specifically, HT22 cells were cotransfected with pmALK and pGFP-tau constructs, and condensation of cells depending whether emodin was treated or not was counted, wherein emodin is an inhibitor of ERK activation and PHF aggregation. Then, the cells were extracted to examine a phosphorylation level of tau protein by using PHF-1 antibody and Tau-1 antibody.

[5] = system: HT22/Tau #1 transformed cell line; assay: Neurite growth and cell viability in HT22/Tau #1 cells by fluorescence microscopy; type: cell-based, mouse; conditions: 25 μM pretreatment, 24 hours, neuronal cells expressing tau and ALK.Fc
Method: A HT22/Tau #1 transformed cell line was cotransfected with pGFP and pcDNA or pALK after pretreated with 25 μM of roscovitine. Thereafter, the resultant was cultured for 24 hours with/without doxycycline (Dox) treatment. Neurite growth and cell viability were measured through a fluorescence microscopy. Relative ratio of neurites was measured by the number of neuronal cells verses the length of neurites. Consequently, the reduction in neurite growth and the increase in cell death by ALK and tau in neuronal cells expressing tau and ALK.Fc were recovered through the CDK5 inhibitor, roscovitine, treatment (FIG. 9B).

HT22 cells = conditions: 25 iM roscovitine, 1 μM U0126, 24 hours
Method: Examined was a cell death level of neuronal cells containing a lot of aggregated and hyperphosphorylated tau due to ALK. HT22 cells were cotransfected with pALK.Fc or pALK.Fc KD construct and pGFP or pGFP-tau construct, and cultured for 24 to 96 hours. Cell death was measured by staining cells with ethidium homodimer (EtHD) and then counting GFP-positive cells indicating condensed and fragmented nuclei.
To examine downstream kinase of ALK-mediated tau neurotoxicity, the present inventor used a kinase inhibitor. HT22 cells were cotransfected with pALK.Fc and pGFP-tau constructs, and then treated with mock (Mock), 25 iM roscovitine (Ros), 1 μM U0126 (U0126), or 10 mM LiCl for 24 hours. Thereafter, cell death was measured. For negative control, used was mock group in which none of a material was treated.

[6] = system: tau phosphorylation and signaling proteins in brain; assay: Western blot of brain tissue (hippocampus) of TauC3 mice after the behavior tests; type: in vivo, mouse
TauC3 AD model mice = assay: Memory tests (Y-MAZE, novel object recognition, passive avoidance) in TauC3 AD model mice; type: in vivo, mouse; conditions: TauC3 mice one-month-old, icv injection 9 pg, after 17 days
Method: TauC3 mice, which were produced by the present inventor, are a tau Alzheimer's mouse model showing early memory defect by expressing tauC3 in a mouse brain, wherein the tauC3 has C-terminal of which 20 amino acids were eliminated by caspase-3 (see Korean Patent No. 1213325). […] After 17 days, memory was measured and compared by Y-MAZE (FIGS. 14A and 14B), novel object recognition (FIG. 14C) and passive avoidance test (FIG. 14D). Consequently, as shown in FIGS. 14A to 14D, memory of mock (a control) in TauC3 TG mice was remarkably declined while memory decline of the ALK inhibitor treating group was suppressed in all three types of behavior tests.

[Cl-].[Li+] [LiCl]
tau phosphorylation ([1]; both cells expressing pGFP-tau alone and coexpressing pGFP-tau and pALK.Fc, inhibition levels very similar): inhibited

pCDK5 shRNA #1: CDK5 shRNA having the nucleotide sequence of SEQ ID No. 1 (5′-TGACCAAGCTGCCAGACTA-3′)
cell death induced by ALK/Tau (CDK5): reduced

COc1cc(N2CCC(N3CCN(C)CC3)CC2)ccc1Nc1ncc(Cl)c(Nc2ccccc2S(=O)(=O)C(C)C)n1 [NVP-TAE684]
cell death (HT22/Tau #1 cells): 10%

Cc1cc(O)c2c(c1)C(=O)c1cc(O)cc(O)c1C2=O [emodin]
IC50 [2]: 1000 to 5000 nM
PHF-1 expression (phosphorylated tau) [3]: decreasing
tau-1 expression (unphosphorylated tau) [3]: increased
tau aggregation caused by ALK [4]: inhibited

pCDK5 shRNA #2: CDK5 shRNA having the nucleotide sequence of SEQ ID No. 2 (5′-ACTCCACGTCCATCGACAT-3′)
cell death induced by ALK/Tau (CDK5): reduced

CC[C@H](CO)Nc1nc(NCc2ccccc2)c2ncn(C(C)C)c2n1 [roscovitine]
increase in cell death by ALK and tau [5]: recovered
reduction in neurite growth by ALK and tau [5]: recovered
ALK-mediated tau phosphorylation [1]: significantly reduced
ALK.Fc/Tau-mediated neurotoxicity (cell death) (HT22 cells): significantly reduced

C[C@@H](Oc1cc(-c2cnn(C3CCNCC3)c2)cnc1N)c1c(Cl)ccc(F)c1Cl [PF-2341066]
ERK1/2 activity in brain ([6]; TauC3 mouse brain): reduced
phosphorylation of tau in brain (PHF1, pT231, CP13, 12E8) ([6]; TauC3 mouse brain (hippocampus)): significantly inhibited
memory decline in all three types of behavior tests (TauC3 AD model mice): suppressed

N#CC(=C(/N)Sc1ccccc1N)/C(C#N)=C(\N)Sc1ccccc1N [U0126]
ALK-mediated tau phosphorylation [1]: significantly reduced
ALK.Fc/Tau-mediated neurotoxicity (cell death) (HT22 cells): partially reduced
